# Measurements from ChEMBL document CHEMBL5518193, “Discovery of N-alkyl-N-benzyl thiazoles as novel TRPC antagonists for the treatment of glioblastoma multiforme” (Eur J Med Chem, 2024).
# pIC50: −log10 of the molar value.
# What was measured:
# [1] = system: LNCaP; experiment: Antiproliferative activity against human LNCaP cells assessed as reduction in cell viability incubated for 72 hrs by MTT assay; format: functional, cell-based
# [2] = AUC (0 to t) in BALB/c mouse at 50 mg/kg, ip administered as liposome encapsulated form and measured upto 24 hrs by LC-MS/MS analysis; format: ADME, organism-based; conditions: in vivo
# [3] = Terminal half life in BALB/c mouse at 12.5 mg/kg, ip administered as liposome encapsulated form and measured upto 24 hrs by LC-MS/MS analysis; format: ADME, organism-based; conditions: in vivo, read-out: beta t1/2 (converted)
# [4] = Toxicity against BALB/c nude mouse xenografted with human U87 cells assessed as mortality at 12.5 to 50 mg/kg/day administered as liposome encapsulated form for 15 days; format: organism-based, U-87MG ATCC; conditions: in vivo, 360 h, dose 12.5-50 mg/kg/day, time 15 day
# [5] = biological target: T1, Short transient receptor potential channel 6 (Mus musculus) (UniProt Q61143); experiment: Antagonist activity at mouse TRPC6 stably expressed in HEK293 cells assessed as inhibition of calcium influx at 10 uM by calcium fluorescence assay relative to control; format: cell-based; conditions: filed as antagonist
# T1 sequence (whole entry): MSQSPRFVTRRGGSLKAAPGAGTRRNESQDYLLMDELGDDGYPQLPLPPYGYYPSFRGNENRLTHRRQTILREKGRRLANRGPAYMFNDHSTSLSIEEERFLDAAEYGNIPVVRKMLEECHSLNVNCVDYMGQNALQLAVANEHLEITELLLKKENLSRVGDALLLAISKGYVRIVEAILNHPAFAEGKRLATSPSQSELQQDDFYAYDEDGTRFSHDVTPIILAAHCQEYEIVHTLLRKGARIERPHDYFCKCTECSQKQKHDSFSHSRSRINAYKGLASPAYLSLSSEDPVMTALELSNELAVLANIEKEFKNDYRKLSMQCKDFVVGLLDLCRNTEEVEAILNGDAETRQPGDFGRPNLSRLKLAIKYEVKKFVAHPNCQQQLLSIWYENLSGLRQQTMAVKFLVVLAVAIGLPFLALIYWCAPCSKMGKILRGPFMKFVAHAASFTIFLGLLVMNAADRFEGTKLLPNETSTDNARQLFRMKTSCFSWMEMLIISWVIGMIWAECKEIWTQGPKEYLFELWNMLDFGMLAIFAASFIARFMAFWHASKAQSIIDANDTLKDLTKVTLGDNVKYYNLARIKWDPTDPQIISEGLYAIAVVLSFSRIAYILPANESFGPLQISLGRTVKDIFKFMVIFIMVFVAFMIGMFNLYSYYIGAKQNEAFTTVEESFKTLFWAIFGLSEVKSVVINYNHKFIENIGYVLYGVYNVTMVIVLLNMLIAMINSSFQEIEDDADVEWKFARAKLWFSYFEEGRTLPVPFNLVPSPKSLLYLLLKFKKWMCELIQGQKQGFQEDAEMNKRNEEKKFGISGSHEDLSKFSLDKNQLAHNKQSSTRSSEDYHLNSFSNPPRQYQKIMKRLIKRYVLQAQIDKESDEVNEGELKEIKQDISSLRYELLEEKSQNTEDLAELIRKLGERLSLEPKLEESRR
# [6] = Toxicity against BALB/c nude mouse xenografted with human U87 cells assessed as change in body weight at 12.5 to 50 mg/kg/day administered as liposome encapsulated form for 15 days; format: organism-based, U-87MG ATCC; conditions: in vivo, 360 h, dose 12.5-50 mg/kg/day, time 15 day
# [7] = Selectivity index, ratio of IC50 for human LNCaP cells to IC50 for human U87 cells; format: functional
# [8] = system: U-87 MG; experiment: Antitumor activity against human U87 cells xenografted in BALB/c nude mouse assessed as tumor growth inhibition at 50 mg/kg/day administered as liposome encapsulated form for 15 days and measured every 3 days by vernier caliper; format: functional, U-87MG ATCC; conditions: 360 h, time 15 day, read-out: TGI
# [9] = biological target: T2, Short transient receptor potential channel 4 (Mus musculus, UniProt Q9QUQ5); experiment: Antagonist activity at mouse TRPC4 stably expressed in HEK293 cells inhibition of calcium influx by calcium fluorescence assay; format: cell-based
# T2 sequence (Q9QUQ5 whole entry): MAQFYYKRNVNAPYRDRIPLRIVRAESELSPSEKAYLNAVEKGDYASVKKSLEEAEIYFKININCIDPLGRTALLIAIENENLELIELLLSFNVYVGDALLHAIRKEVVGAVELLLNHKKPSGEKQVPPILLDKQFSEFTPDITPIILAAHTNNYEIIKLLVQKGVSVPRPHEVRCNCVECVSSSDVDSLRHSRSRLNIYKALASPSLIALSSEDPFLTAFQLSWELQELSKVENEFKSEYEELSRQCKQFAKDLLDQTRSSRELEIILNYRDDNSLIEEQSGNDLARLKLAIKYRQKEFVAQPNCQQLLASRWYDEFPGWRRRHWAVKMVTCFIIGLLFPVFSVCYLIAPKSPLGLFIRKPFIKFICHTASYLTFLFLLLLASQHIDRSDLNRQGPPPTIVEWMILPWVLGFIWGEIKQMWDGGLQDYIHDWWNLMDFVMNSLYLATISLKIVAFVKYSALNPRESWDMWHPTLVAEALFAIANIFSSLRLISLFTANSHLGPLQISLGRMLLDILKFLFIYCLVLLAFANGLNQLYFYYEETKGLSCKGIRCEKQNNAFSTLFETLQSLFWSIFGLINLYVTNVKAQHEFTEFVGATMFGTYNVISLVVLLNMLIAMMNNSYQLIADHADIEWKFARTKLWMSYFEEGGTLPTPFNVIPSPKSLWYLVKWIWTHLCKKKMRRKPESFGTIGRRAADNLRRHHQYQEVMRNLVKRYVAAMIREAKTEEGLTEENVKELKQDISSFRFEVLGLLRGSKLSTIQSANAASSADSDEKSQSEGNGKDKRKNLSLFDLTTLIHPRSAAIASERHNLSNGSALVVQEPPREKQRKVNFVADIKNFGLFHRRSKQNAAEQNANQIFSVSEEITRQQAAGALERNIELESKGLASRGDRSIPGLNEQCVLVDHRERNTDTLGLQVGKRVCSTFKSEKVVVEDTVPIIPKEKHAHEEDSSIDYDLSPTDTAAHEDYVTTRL
# [10] = AUC (0 to t) in BALB/c mouse at 25 mg/kg, ip administered as liposome encapsulated form and measured upto 24 hrs by LC-MS/MS analysis; format: ADME, organism-based; conditions: in vivo
smiles,measurement,setting,value
NCCN(Cc1ccc2ccccc2c1)c1nc(C(=O)Nc2ccc(O)cc2)cs1,pIC50,[1],5.08
same,AUC(0-t) at 24 h,[2],16600 ng·h/mL
same,half-life,[3],6.8 h
same,Activity,[4],Non-Toxic
same,inhibition,[5],100%
same,Activity,[6],Non-Toxic
same,Ratio IC50,[7],2
same,inhibition in vivo at 50 mg/kg/day,[8],49.4%
same,pIC50,[9],4.91
same,AUC(0-t) at 24 h,[10],6840 ng·h/mL
